Values after ≈ are worked out from the molar mass of the structure shown. Read-outs that look alike come from different tables or passages of the source.
Columns and labels:
Format in all cases: cell-based
[1] = tested on: EC882 E. coli imp; assay: broth dilution MIC, E. coli EC882
Source text: (§1) We have collected MIC data for a total of 50 novel macrolides that this platform has produced against over 21 unique strains of B. subtilis, E. coli, S. aureus, S. pneumoniae, and H. influenzae, including several multidrug-resistant strains, with a special focus on macrolide resistant mechanisms (vide supra). Azithromycin was included as a control macrolide. CLSI standard procedures for broth dilution MIC determination were used. […] These genotypes can be constitutive or inducible. The finding that C4-epi (unnatural) isomers of the “azaketolide” macrolide class have enhanced activities relative to C4 natural isomers is very exciting.

[2] = tested on: BS1725 B. subtilis ermC; assay: broth dilution MIC, B. subtilis BS1725
Source text: as §1

[3] = tested on: EC878 E. coli tolC; assay: broth dilution MIC, E. coli EC878
Source text: as §1

[4] = tested on: SA101 S. aureus ATCC29213; assay: broth dilution MIC, S. aureus SA101
Source text: as §1

[5] = tested on: BS1723 B. subtilis BS168 WT wild type; assay: broth dilution MIC, B. subtilis BS1723; conditions: BS1723 B. subtilis BS168 WT wild type
Source text: as §1

[6] = tested on: EC107 E. coli ATCC25922; assay: broth dilution MIC, E. coli EC107
Source text: as §1

[7] = tested on: E. coli strains; assay: MIC against E. coli strains (Table M7); conditions: Escherichia coli, ATCC25922, E. coli ATCC 25922
Source text: as §1

[8] = tested on: H. influenzae strains; assay: MIC against H. influenzae strains (Table M8); conditions: Haemophilus influenzae
Source text: as §1

[9] = tested on: A. baumannii strains; assay: MIC against A. baumannii strains (Table M8); conditions: Acinetobacter baumannii, BAA747, A. baumannii BAA747-1
[10] = tested on: K. pneumoniae strains; assay: MIC against K. pneumoniae strains (Table M8); conditions: Klebsiella pneumoniae, K. pneumoniae 10031
[11] = tested on: S. aureus strains; assay: MIC against S. aureus strains (Table M7); conditions: Staphylococcus aureus
Source text: as §1

[12] = tested on: E. faecalis strains; assay: MIC against E. faecalis strains (Table M8); conditions: Enterococcus faecalis, E. faecalis 29212
[13] = tested on: S. pneumoniae strains; assay: MIC against S. pneumoniae strains (Tables M7, M8); conditions: Streptococcus pneumoniae
Source text: CLSI standard procedures for broth dilution MIC determination were used. […] These genotypes can be constitutive or inducible.

[14] = Bacillus subtilis, BS1725 B. subtilis ermC (+ery)
[15] = Bacillus subtilis, BS1725 B. subtilis ermC (−ery)
[16] = Staphylococcus aureus, ATCC29213, SA101 S. aureus ATCC29213, read-out: MIC
[17] = Bacillus subtilis, read-out: MIC
[18] = Escherichia coli, read-out: MIC
[19] = H. influenzae 49247, read-out: MIC H. influenzae (49247)
[20] = H. influenzae 49766, read-out: MIC H. influenzae (49766)
[21] = ATCC29213, S. aureus ATCC 29213, read-out: MIC S. aureus (ATCC 29213)
[22] = S. aureus 183, read-out: MIC S. aureus (183)
[23] = S. aureus 506, read-out: MIC S. aureus (506)
[24] = S. aureus 1708, read-out: MIC S. aureus (1708)
[25] = USA300, S. aureus USA300, read-out: MIC S. aureus (USA300)
[26] = S. pneumoniae 160, read-out: MIC S. pneumonae (160)
[27] = S. pneumoniae 1509, read-out: MIC S. pneumoniae (1509)
[28] = S. pneumoniae 1533, read-out: MIC S. pneumoniae (1533)
[29] = S. pneumoniae 1537, read-out: MIC S. pneumoniae (1537)
[30] = S. pneumoniae 49619, read-out: MIC S. pneumoniae (49619)

CC[C@H]1OC(=O)[C@H](C)C(=O)C[C@@H](O[C@@H]2OC(C)CC(N(C)C)C2O)[C@@](C)(OC)C[C@@H](C)CN[C@H](C)[C@H]2N(CCCCn3cc(-c4cccnn4)nn3)C(=O)O[C@]12C (stereo partly drawn) [FSM-30506]
MIC ([1]; Escherichia coli): > 32 µg/mL
MIC [2, 14]: > 32 µg/mL
MIC [2, 15]: > 32 µg/mL
MIC ([3]; Escherichia coli): > 32 µg/mL
MIC [4, 16]: > 32 µg/mL
MIC [5, 17]: > 32 µg/mL
MIC [6, 18]: > 32 µg/mL

CC[C@H]1OC(=O)[C@H](C)C(=O)C[C@@H](O[C@@H]2OC(C)CC(N(C)C)C2O)[C@@](C)(OC)C[C@@H](C)CN(C(C)=O)[C@H](C)[C@H]2N(CCCCn3cc(-c4cccc(N)c4)nn3)C(=O)O[C@]12C (stereo partly drawn) [FSM-30512]
MIC ([1]; Escherichia coli): > 32 µg/mL
MIC [2, 14]: > 32 µg/mL
MIC [2, 15]: > 32 µg/mL
MIC ([3]; Escherichia coli): > 32 µg/mL
MIC [4, 16]: > 32 µg/mL
MIC [5, 17]: > 32 µg/mL
MIC [6, 18]: > 32 µg/mL

CC[C@H]1OC(=O)C(C)(F)C(=O)[C@@H](C)[C@@H](O[C@@H]2OC(C)CC(N(C)C)C2O)[C@](C)(OC)C[C@@H](C)CN[C@H](C)[C@H]2N(CCCCn3cc(-c4nc5ccccc5s4)nn3)C(=O)O[C@]12C (stereo partly drawn) [FSM-20722]
MIC ([1]; Escherichia coli): 0.5 µg/mL (≈ 0.563 µM)
MIC [2, 14]: > 32 µg/mL
MIC ([3]; Escherichia coli): 1 µg/mL (≈ 1.13 µM)
MIC [4, 16]: 8 µg/mL (≈ 9.01 µM)
MIC [5, 17]: 16 µg/mL (≈ 18 µM)
MIC [6, 18]: > 32 µg/mL

CC[C@H]1OC(=O)[C@H](C)C(=O)C[C@@H](O[C@@H]2OC(C)CC(N(C)C)C2O)[C@@](C)(OC)C[C@@H](C)CN(C(C)=O)[C@H](C)[C@H]2N(CCCCn3cc(-c4ccccn4)nn3)C(=O)O[C@]12C (stereo partly drawn) [FSM-30515]
MIC ([1]; Escherichia coli): > 32 µg/mL
MIC [2, 14]: > 32 µg/mL
MIC [2, 15]: > 32 µg/mL
MIC ([3]; Escherichia coli): > 32 µg/mL
MIC [4, 16]: > 32 µg/mL
MIC [5, 17]: > 32 µg/mL
MIC [6, 18]: > 32 µg/mL

spiramycin [reference compound]
MIC [1]: 1 µg/mL
MIC ([2]; BS1725 B. subtilis ermC (+ery)): 16 µg/mL
MIC ([2]; BS1725 B. subtilis ermC (−ery)): 2 µg/mL
MIC [3]: 16 µg/mL
MIC ([4]; SA101 S. aureus ATCC29213): 8 µg/mL
MIC [5]: 2 µg/mL
MIC [6]: >32 µg/mL

CC[C@H]1OC(=O)C(C)C(=O)[C@H](C)[C@@H](O[C@@H]2OC(C)CC(N(C)C)C2O)[C@](C)(OC)C[C@@H](C)C(=O)N[C@H](C)[C@H]2N(CCCCn3cc(-c4cccc(N)c4)nn3)C(=O)O[C@]12C (stereo partly drawn) [FSM-21344]
MIC [7]: > 32 µg/mL
MIC [8, 19]: 8 µg/mL (≈ 9.5 µM)
MIC [8, 20]: 32 µg/mL (≈ 38 µM)
MIC [9]: > 32 µg/mL
MIC [10]: 16 µg/mL (≈ 19 µM)
MIC [11, 21]: > 32 µg/mL
MIC [11, 22]: > 32 µg/mL
MIC [11, 23]: > 32 µg/mL
MIC [11, 24]: > 32 µg/mL
MIC [11, 25]: > 32 µg/mL
MIC [12]: 16 µg/mL (≈ 19 µM)
MIC [13, 26]: 8 µg/mL (≈ 9.5 µM)
MIC [13, 27]: 4 µg/mL (≈ 4.75 µM)
MIC [13, 28]: > 32 µg/mL
MIC [13, 29]: > 32 µg/mL
MIC [13, 30]: 0.5 µg/mL (≈ 0.594 µM)

CC[C@H]1OC(=O)[C@H](C)C(=O)[C@H](C)[C@@H](O[C@@H]2OC(C)CC(N(C)C)C2O)[C@](C)(OC)C[C@@H](C)CN[C@H](CCO)[C@H]2N(CCCCn3cc(-c4cccc(N)c4)nn3)C(=O)O[C@]12C (stereo partly drawn) [FSM-11056]
MIC [7]: > 32 µg/mL
MIC [8, 19]: 4 µg/mL (≈ 4.66 µM)
MIC [8, 20]: 16 µg/mL (≈ 18.6 µM)
MIC [9]: > 32 µg/mL
MIC [10]: 16 µg/mL (≈ 18.6 µM)
MIC [11, 21]: 8 µg/mL (≈ 9.32 µM)
MIC [11, 22]: > 32 µg/mL
MIC [11, 23]: > 32 µg/mL
MIC [11, 24]: 8 µg/mL (≈ 9.32 µM)
MIC [11, 25]: 32 µg/mL (≈ 37.3 µM)
MIC [12]: 2 µg/mL (≈ 2.33 µM)
MIC [13, 26]: 1 µg/mL (≈ 1.17 µM)
MIC [13, 27]: 0.5 µg/mL (≈ 0.583 µM)
MIC [13, 28]: > 32 µg/mL
MIC [13, 29]: > 32 µg/mL
MIC [13, 30]: 0.125 µg/mL (≈ 0.146 µM)
